Measured values: PubChem BioAssay AID248 (DTP/NCI, 2004)
Several values for one entry are separate records, joined by “and”; a condition that tells them apart may be missing. Equal entries are not always repeated. Toxic doses and inconclusive results are not listed. Cut-off read from the data, not from the text of the source: active = T/C of 150% or more; inactive = T/C below 125%.

Test system: L1210 leukemia ip in BDF1 mice, survival T/C
Test: NCI In Vivo Anticancer Drug Screen. Data for tumor model L1210 Leukemia (intraperitoneal) in B6D2F1 (BDF1) mice
Details: endpoint: mean survival time, higher = longer survival
Procedure, shortened: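 Survival endpoint. Drug-treated group vs vehicle group, expressed as T divided by C. Tumor passaged by transplantation.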

[1] = dose: 100.0 mg/kg/injection, schedule: Q04DX002 (ip), vehicle: saline with Tween-80
[2] = dose: 200.0 mg/kg/injection, schedule: Q04DX002 (ip), vehicle: saline with Tween-80
[3] = dose: 25.0 mg/kg/injection, schedule: Q04DX003 (ip), vehicle: saline
[4] = dose: 50.0 mg/kg/injection, schedule: Q01DX009 (ip), vehicle: saline
[5] = dose: 50.0 mg/kg/injection, schedule: Q04DX003 (ip), vehicle: saline
[6] = dose: 100.0 mg/kg/injection, schedule: Q01DX001 (ip), vehicle: saline
[7] = dose: 200.0 mg/kg/injection, schedule: Q01DX001 (ip), vehicle: saline
[8] = dose: 400.0 mg/kg/injection, schedule: Q01DX001 (ip), vehicle: saline
[9] = dose: 100.0 mg/kg/injection, schedule: Q04DX003 (ip), vehicle: saline
[10] = dose: 200.0 mg/kg/injection, schedule: Q04DX003 (ip), vehicle: saline
[11] = dose: 400.0 mg/kg/injection, schedule: Q04DX003 (ip), vehicle: saline

Measured: T/C

CCOC(=O)c1cc(C(=O)OCC)c(C)nc1C
inactive: dose: 75.0 mg/kg/injection, schedule: Q01DX001 (ip), vehicle: saline 96 % of control | dose: 75.0 mg/kg/injection, schedule: Q01DX009 (ip), vehicle: saline 94 % of control | dose: 100.0 mg/kg/injection, schedule: Q04DX003 (ip), vehicle: Klucel (hydroxypropylcellulose) (HPC) 96 % of control | dose: 150.0 mg/kg/injection, schedule: Q01DX001 (ip), vehicle: saline 98 % of control | dose: 150.0 mg/kg/injection, schedule: Q01DX009 (ip), vehicle: saline 94 % of control | dose: 200.0 mg/kg/injection, schedule: Q04DX003 (ip), vehicle: Klucel (hydroxypropylcellulose) (HPC) 93 % of control | dose: 300.0 mg/kg/injection, schedule: Q01DX001 (ip), vehicle: saline 100 % of control | dose: 300.0 mg/kg/injection, schedule: Q01DX009 (ip), vehicle: saline 91 % of control | dose: 400.0 mg/kg/injection, schedule: Q04DX003 (ip), vehicle: Klucel (hydroxypropylcellulose) (HPC) 93 % of control

O=C(Oc1ccccc1)c1ccc2[nH]c(=O)c(C(=O)O)nc2c1
inactive: dose: 25.0 mg/kg/injection, schedule: Q01DX001 (ip), vehicle: saline with Tween-80 96 % of control | dose: 50.0 mg/kg/injection, schedule: Q01DX001 (ip), vehicle: saline with Tween-80 100 % of control | dose: 100.0 mg/kg/injection, schedule: Q01DX001 (ip), vehicle: saline with Tween-80 98 % of control

O=C1NC(=O)C(=Cc2ccc(N(CCCl)CCCl)cc2)C(=O)N1
inactive: dose: 100.0 mg/kg/injection, schedule: Q01DX Z (ip), vehicle: methylcellulose (MC) 102 % of control | dose: 200.0 mg/kg/injection, schedule: Q01DX Z (ip), vehicle: methylcellulose (MC) 121 % of control

CN1CSC(=S)N(Cc2ccccc2)C1
inactive: [1] 94 % of control | [2] 97 % of control | dose: 400.0 mg/kg/injection, schedule: Q04DX002 (ip), vehicle: saline with Tween-80 105 % of control

O=C(O)CC1=C(O)c2ccccc2C(=O)C1=O
inactive: dose: 100.0 mg/kg/injection, schedule: Q01DX001 (ip), vehicle: water 97 % of control | dose: 200.0 mg/kg/injection, schedule: Q01DX001 (ip), vehicle: water 103 % of control | dose: 400.0 mg/kg/injection, schedule: Q01DX001 (ip), vehicle: water 97 % of control

Cc1cccnc1NC1=NCCO1
inactive: dose: 100.0 mg/kg/injection, schedule: Q01DX009 (ip), vehicle: saline with Tween-80 100 % of control | dose: 200.0 mg/kg/injection, schedule: Q01DX009 (ip), vehicle: saline with Tween-80 96 % of control | dose: 400.0 mg/kg/injection, schedule: Q01DX009 (ip), vehicle: saline with Tween-80 93 % of control

COc1cc2c3c(c1)C(O)CC[N+]3(C)CCC2 (centres undefined)
inactive: dose: 12.5 mg/kg/injection, schedule: Q01DX009 (ip), vehicle: saline 90 % of control | dose: 12.5 mg/kg/injection, schedule: Q04DX003 (ip), vehicle: saline 114 % of control | dose: 25.0 mg/kg/injection, schedule: Q01DX009 (ip), vehicle: saline 95 % of control | [3] 98 % of control | [4] 92 % of control | [5] 112 % of control

CN1CCC(=C(C#N)c2ccccc2)CC1
inactive: [3] 97 % of control | [5] 97 % of control

O=c1[nH][nH]c(=S)c2[nH]c(=S)n(Cc3ccccc3)c12
inactive: [6] 90 % of control | [7] 93 % of control | [8] 90 % of control

C1=C(C2=CCCCC2)CCCC1
inactive: dose: 100.0 mg/kg/injection, schedule: Q01DX009 (ip), vehicle: acetone 108 % of control | [9] 112 % of control | dose: 200.0 mg/kg/injection, schedule: Q01DX009 (ip), vehicle: acetone 100 % of control | [10] 104 % of control | dose: 400.0 mg/kg/injection, schedule: Q01DX009 (ip), vehicle: acetone 108 % of control | [11] 96 % of control

CCOc1ccn(C2OC(COC(C)=O)C(OC(C)=O)C(OC(C)=O)C2Nc2ccc([N+](=O)[O-])cc2[N+](=O)[O-])c(=O)n1 (centres undefined)
inactive: [6] 103 % of control | [7] 100 % of control | [8] 97 % of control

Cc1ccccc1-n1nnc2ccccc2c1=O
inactive: [6] 95 % of control | [9] 95 % of control | [7] 92 % of control | [10] 115 % of control | [8] 89 % of control | [11] 88 % of control

CC(=N/N(C)c1ccccc1)/C(C)=N/N(C)c1ccccc1
inactive: dose: 5.0 mg/kg/injection, schedule: Q01DX001 (ip), vehicle: other 96 % of control | dose: 10.0 mg/kg/injection, schedule: Q01DX001 (ip), vehicle: other 102 % of control | dose: 20.0 mg/kg/injection, schedule: Q01DX001 (ip), vehicle: other 100 % of control | dose: 40.0 mg/kg/injection, schedule: Q01DX001 (ip), vehicle: other 100 % of control | dose: 80.0 mg/kg/injection, schedule: Q01DX001 (ip), vehicle: other 93 % of control

O=CCC1C=CCC1 (centres undefined)
inactive: dose: 75.0 mg/kg/injection, schedule: Q01DX001 (ip), vehicle: carboxymethylcellulose (CMC) 101 % of control | dose: 150.0 mg/kg/injection, schedule: Q01DX001 (ip), vehicle: carboxymethylcellulose (CMC) 103 % of control

O=C(Nc1ccc(S(=O)(=O)Nc2ccc(N=Nc3ccc(N=Nc4ccccc4)cc3)cc2)cc1)C(N1CC1)(N1CC1)N1CC1
inactive: dose: 15.0 mg/kg/injection, schedule: Q01DX001 (ip), vehicle: saline 104 % of control | dose: 30.0 mg/kg/injection, schedule: Q01DX001 (ip), vehicle: saline 117 % of control | dose: 60.0 mg/kg/injection, schedule: Q01DX001 (ip), vehicle: saline 102 % of control

COc1ccc(-c2ccc(OC)c(OC)c2OC)c(N)c1
inactive: dose: 65.0 mg/kg/injection, schedule: Q01DX Z (ip), vehicle: carboxymethylcellulose (CMC) 93 % of control and 121 % of control | dose: 125.0 mg/kg/injection, schedule: Q01DX Z (ip), vehicle: carboxymethylcellulose (CMC) 94 % of control and 100 % of control | dose: 250.0 mg/kg/injection, schedule: Q01DX Z (ip), vehicle: carboxymethylcellulose (CMC) 93 % of control and 86 % of control | dose: 500.0 mg/kg/injection, schedule: Q01DX Z (ip), vehicle: carboxymethylcellulose (CMC) 112 % of control

CCCCCCCCCCSC#N
inactive: dose: 5.0 mg/kg/injection, schedule: Q01DX001 (ip), vehicle: saline 103 % of control | dose: 10.0 mg/kg/injection, schedule: Q01DX001 (ip), vehicle: saline 97 % of control | dose: 20.0 mg/kg/injection, schedule: Q01DX001 (ip), vehicle: saline 105 % of control | dose: 20.0 mg/kg/injection, schedule: Q01DX009 (ip), vehicle: saline 111 % of control | dose: 20.0 mg/kg/injection, schedule: Q04DX003 (ip), vehicle: saline 100 % of control | dose: 40.0 mg/kg/injection, schedule: Q01DX001 (ip), vehicle: saline 97 % of control | dose: 40.0 mg/kg/injection, schedule: Q01DX009 (ip), vehicle: saline 106 % of control | dose: 40.0 mg/kg/injection, schedule: Q04DX003 (ip), vehicle: saline 100 % of control | dose: 80.0 mg/kg/injection, schedule: Q01DX009 (ip), vehicle: saline 100 % of control | dose: 80.0 mg/kg/injection, schedule: Q04DX003 (ip), vehicle: saline 101 % of control

CP1(=O)CCC(=O)C1Br (centres undefined)
inactive: dose: 50.0 mg/kg/injection, schedule: Q04DX002 (ip), vehicle: saline with Tween-80 98 % of control | [1] 95 % of control | [2] 91 % of control

CCCC(O)S(=O)(=O)O (centres undefined)
inactive: [4] 103 % of control | dose: 100.0 mg/kg/injection, schedule: Q01DX009 (ip), vehicle: saline 94 % of control | dose: 100.0 mg/kg/injection, schedule: Q04DX003 (ip), vehicle: acetone 102 % of control | dose: 200.0 mg/kg/injection, schedule: Q01DX009 (ip), vehicle: saline 97 % of control | dose: 200.0 mg/kg/injection, schedule: Q04DX003 (ip), vehicle: acetone 99 % of control | dose: 400.0 mg/kg/injection, schedule: Q04DX003 (ip), vehicle: acetone 93 % of control

COc1ccc(/C=C2\N=C(c3ccco3)OC2=O)cc1Br
inactive: dose: 100.0 mg/kg/injection, schedule: Q01DX009 (ip), vehicle: Klucel (hydroxypropylcellulose) (HPC) 94 % of control | dose: 200.0 mg/kg/injection, schedule: Q01DX009 (ip), vehicle: Klucel (hydroxypropylcellulose) (HPC) 94 % of control | dose: 400.0 mg/kg/injection, schedule: Q01DX009 (ip), vehicle: Klucel (hydroxypropylcellulose) (HPC) 91 % of control

CCOc1ncc([N+](=O)[O-])c(OCC)n1
inactive: dose: 50.0 mg/kg/injection, schedule: Q01DX001 (ip), vehicle: saline 103 % of control | [6] 106 % of control | [7] 103 % of control | [8] 100 % of control
